{"source": "patent EP0319316A2", "about": "“Griseolic acid monoesters, their preparation and use” (SANKYO COMPANY LIMITED, priority 1987, dated 1989)", "key": {"[1]": {"system": "normal rabbits", "assay": "Intraocular pressure reduction in normal rabbits (Experiment 1)", "assay_type": "in vivo, male New Zealand white rabbits", "procedure": "In the following Experiments 1 to 6, the test animals used were male New Zealand white rabbits, each weighing about 2.5 kg, raised in a room where the room temperature, relative humidity and lighting time were controlled to be 23° C, 60% and from 07:00 to 19:00, respectively. The animals were chosen from those where no abnormalities could be detected in their eyes by observation with the naked eye. They were given water freely but feed was restricted. The reduction in intraocular pressure (IOP) caused by the compounds of the present invention was investigated using groups of three male New Zealand white rabbits for each test. The compounds of the present invention were employed as solutions dissolved in a 50 mM phosphate buffer (pH 7.0) containing 0.4% w/v of sodium chloride which were adjusted to concentrations of about 1% w/v of the compound under test. Both eyes of each rabbit were anesthetized with eye drops containing an ophthalmic anesthetic (0.4% Benoxil, available from Santen Pharmaceutical Co., Ltd.), and then the IOP in each eye was measured by means of a PTG (Pneumatonograph: Alcon). The test substance was then instilled into either the left eye or the right eye (the eye to be tested) in an amount of 50 µℓ (in the case of 0.5% timolol, a known compound used for comparison, the amount was 30 µℓ). Sixty minutes after this instillation, the same amount of the same test compound was instilled into the same eye of each test animal. On the other hand, no instillation was effected into the other eye of each animal, which was used as a control eye. The IOP values of both eyes were measured 30,60,90,120,150 and 180 minutes, after the initial instillation of the test substance. The IOP reduction at each time of measurement caused by each test substance was calculated from the following equation: Intraocular pressure reduction (Ap, mmHg) = (Ic - It) - (Ic° - It°), • in which: • Ic the IOP of the control eye; • It is the IOP of the test eye; • Ic° the IOP of the control eye immediately before the initial instillation; and • It° is the IOP of the test eye immediately before the initial instillation. The average value of the IOP reduction at each time of measurement was calculated to obtain the intraocular reduction (Ap, mmHg) of the test substance. The results are reported as a ratio of the Δp of the test substance to that of the known substance, 0.5% timolol, which is, therefore, taken as 1."}, "[2]": {"system": "Balb/3T3 cells", "details": "10 min, 500 µM", "experimental": "(§1) Balb/3T3 cells were incubated in Dulbecco's modified Eagle medium (glucose-rich) containing 100/o v/v bovine fetal serum. […] The sample was then dissolved in a buffer solution prepared by the further addition of 4 mM of calcium chloride to the buffer solution mentioned above. If the sample was difficult to dissolve in water, it was dissolved first in dimethyl sulphoxide (DMSO) and then the resulting solution was diluted with the buffer (the final concentration of DMSO was determined to be 0.1%). The cell suspension was preincubated at 30° C for 5 minutes, and 100 µℓ of this suspension were added to 100 µℓ of the sample solution to initiate enzymatic reaction. After incubation at 30° C for 10 minutes, 20 µℓ of 1 N aqueous hydrochloric acid was added to stop the reaction. The reaction mixture was then centrifuged at 3000 rpm for 3 minutes to obtain 100 µℓ of the supernatant. Cyclic 3',5'-adenosine monophosphate (cAMP) contained in the supernatant was quantitatively analyzed by radioimmunoassay using a Yamasa cAMP radioimmunoassay kit YSI-7701. The CAMP accumulating effect is reported as the ratio between the value measured using a test compound and that measured in the control."}, "[3]": {"system": "Balb/3T3 cells", "assay": "cAMP accumulation in Balb/3T3 cells, radioimmunoassay (Experiment 5)", "experimental": "as §1"}, "[4]": {"system": "IOP", "assay": "IOP lowering effect, area between IOP-time curves (Experiment 6)", "assay_type": "in vivo, male New Zealand white rabbits", "details": "25 µℓ three times every 2 minutes, ratio of areas between IOP lines", "procedure": "In the following Experiments 1 to 6, the test animals used were male New Zealand white rabbits, each weighing about 2.5 kg, raised in a room where the room temperature, relative humidity and lighting time were controlled to be 23° C, 60% and from 07:00 to 19:00, respectively. The animals were chosen from those where no abnormalities could be detected in their eyes by observation with the naked eye. They were given water freely but feed was restricted.\nThe compound under test was dissolved in 100 mM of a sodium phosphate buffer solution (pH 7.2) containing a small amount of a 0.1 N aqueous solution of sodium hydroxide. In the case of timolol maleate, a 0.5% w/v eye lotion (Timoptol 0.5%, Santen Pharm. Co.) was used as such.\nThe cornea of the rabbit was anesthetized by the topical application of one or two drops of 0.4% oxybuprocaine hydrochloride. The IOP was measured two or three times for each eye and the mean value was calculated and is reported as the IOP value. After the IOP of the rabbit eye had been measured, 25 µℓ of the sample solution was applied to center of the cornea of one eye three times every 2 minutes. The other eye was treated with the vehicle alone in a similar way. The IOP of both eyes was then measured.\nIOP values obtained from both eyes were plotted against times after application and the area enclosed by the two IOP lines (with and without the active compound) was calculated. The IOP lowering effect of each sample was expressed as a ratio of the area described above to that of 0.5^0/o timolol."}, "[5]": {"system": "Normal intraocular pressure", "assay": "Normal intraocular pressure lowering effect (Experiment 3)", "assay_type": "in vivo, male New Zealand white rabbits", "details": "0.5% timolol maleate applied to the eye", "procedure": "In the following Experiments 1 to 6, the test animals used were male New Zealand white rabbits, each weighing about 2.5 kg, raised in a room where the room temperature, relative humidity and lighting time were controlled to be 23° C, 60% and from 07:00 to 19:00, respectively. The animals were chosen from those where no abnormalities could be detected in their eyes by observation with the naked eye. They were given water freely but feed was restricted. The compound under test was dissolved in 100 mM of a sodium phosphate buffer solution (pH 7.2) containing a small amount of a 0.1 N aqueous solution of sodium hydroxide. In the case of timolol maleate, a 0.5% w/v eye lotion (Timoptol 0.5%, Santen Pharm. Co.) was used as such. The corneal surface was anesthetized by the application of oxybuprocain hydrochloride (Benoxil 0.4% solution, Santen Pharm. Co.), and the IOP was measured by means of an Alcon Applanation Pneumatograph (Japan Alcon) in rabbits. The measurements were carried out 2 or 3 times for each eye, and the mean value was calculated and is regarded as the value of IOP. After determination of the IOP, 25 µℓ of a sample solution was applied to one eye (test eye) three times every two minutes, and the same volume of the vehicle alone was applied to the other eye (control eye). The values of IOP of both eyes were measured with the passage of time. In this Experiment, the test compound was the compound of Example 19(b)."}, "[6]": {"system": "water load-induced elevation of intraocular pressure", "assay": "Effect on water load-induced elevation of intraocular pressure, water load test (Experiment 2)", "assay_type": "in vivo, male New Zealand white rabbits", "details": "0.5% timolol maleate; water load test", "procedure": "In the following Experiments 1 to 6, the test animals used were male New Zealand white rabbits, each weighing about 2.5 kg, raised in a room where the room temperature, relative humidity and lighting time were controlled to be 23° C, 60% and from 07:00 to 19:00, respectively. The animals were chosen from those where no abnormalities could be detected in their eyes by observation with the naked eye. They were given water freely but feed was restricted. The compound under test was dissolved in 100 mM of a sodium phosphate buffer solution (pH 7.2) containing a small amount of a 0.1 N aqueous solution of sodium hydroxide. In the case of timolol maleate, a 0.5% w/v eye lotion (Timoptol 0.5%, Santen Pharm. Co.) was used as such. Each rabbit was anesthetized with urethane (1.0 g/kg, i.v.), and the IOP values of both eyes were measured. Immediately thereafter, 50 µℓ of the sample solution was applied to one eye (test eye). To the other eye (control eye), 50 µℓ of the vehicle alone was applied. Ninety minutes after this application, the values of IOP were measured and then the water load test was performed as follows. Sixty ml/kg of tap water was given compulsorily per os to the anesthetized rabbit, and then the values of IOP for both eyes were measured with the passage of time. In this Experiment, the test compound was the compound of Example 19(b), i.e. 9'-(4-acetoxybenzyl) griseolate."}, "[7]": {"details": "drug concentration 1.0 %, 50 µℓ instilled at 0 and 60 min, average over 30-180 min, ratio to 0.5% timolol taken as 1"}}, "note": "Structures can show the parent of a compound that is named as a salt. Where two headings read alike, the source gives them in different places.", "data": [{"molecule": "8'-Pivaloyloxyrnethyl griseolate [Example 10]", "values": [{"measurement": "Intraocular pressure reduction relative to 0.5% timolol", "setting": "[1]; [7]", "result": 1.08}]}, {"molecule": "9'-(1-Pivaloyloxyethyl) griseolate [Example 5]", "values": [{"measurement": "Intraocular pressure reduction relative to 0.5% timolol", "setting": "[1]; [7]", "result": 0.92}]}, {"molecule": "9'-(3,4-Diacetoxybenzyl) griseolate [Example 22(b)]", "values": [{"measurement": "cAMP accumulating effect", "setting": "[2]", "result": 8.3}]}, {"molecule": "9'-(4-Acetoxy-3-methoxybenzyl) 7'-deoxygriseolate [Example 37]", "values": [{"measurement": "cAMP accumulating effect", "setting": "[3]; Concentration 500 µM, ratio of value with test compound to control, 30° C, 10 minutes", "result": 16}]}, {"molecule": "9'-(4-Acetoxy-3-methoxybenzyl) griseolate [Example 26(b)]", "values": [{"measurement": "IOP Lowering Effect (Ratio to 0.5% timolol)", "setting": "[4]; Concentration 0.5 %", "result": 3.29}]}, {"molecule": "9'-Pivaloyloxymethyl griseolate [Example 1]", "values": [{"measurement": "Intraocular pressure reduction relative to 0.5% timolol", "setting": "[1]; [7]", "result": 2.38}]}, {"molecule": "9'-[1-(Isopropoxycarbonyloxy)ethyl] griseolate [Example 2]", "values": [{"measurement": "Intraocular pressure reduction relative to 0.5% timolol", "setting": "[1]; [7]", "result": 1.24}]}, {"molecule": "Cc1oc(=O)oc1COC(=O)C12C=C(C(O)C(=O)O)OC1C(O)C(n1cnc3c(N)ncnc31)O2", "note": "(centres unmarked) [Example 3, 9'-(5-Methyl-2-oxo-1,3-dioxolen-4-yl)methyl griseolate]", "values": [{"measurement": "Intraocular pressure reduction relative to 0.5% timolol", "setting": "[1]; [7]", "result": 0.90}]}, {"molecule": "CCCC(=O)OC(C)OC(=O)C12C=C(C(O)C(=O)O)OC1C(O)C(n1cnc3c(N)ncnc31)O2", "note": "(centres unmarked) [Example 7, 9'-(1-Butyryloxyethyl) griseolate]", "values": [{"measurement": "Intraocular pressure reduction relative to 0.5% timolol", "setting": "[1]; [7]", "result": 0.79}]}, {"molecule": "CC(C)(C)C(=O)Oc1ccc(COC(=O)C23C=C(C(O)C(=O)O)OC2C(O)C(n2cnc4c(N)ncnc42)O3)cc1", "note": "(centres unmarked) [Example 21(b), 9'-(4-Pivaloyloxybenzyl) griseolate]", "values": [{"measurement": "cAMP accumulating effect", "setting": "[2]", "result": 8.5}]}, {"molecule": "CC(C)C(=O)Oc1ccc(COC(=O)C2=CC3(C(O)C(=O)O)OC(n4cnc5c(N)ncnc54)C(O)C3O2)cc1", "note": "(centres unmarked) [Example 23(b), 9'-(4-lsobutyryloxybenzyl) griseolate]", "values": [{"measurement": "IOP Lowering Effect (Ratio to 0.5% timolol)", "setting": "[4]; Concentration 0.03 %", "result": 1.62}]}, {"molecule": "CC(=O)Oc1ccccc1C=CCOC(=O)C12C=C(C(O)C(=O)O)OC1C(O)C(n1cnc3c(N)ncnc31)O2", "note": "(centres unmarked) [Example 31(b), 9'-(2-Acetoxycinnamyl) griseolate]", "values": [{"measurement": "IOP Lowering Effect (Ratio to 0.5% timolol)", "setting": "[4]; Concentration 0.5 %", "result": 1.88}]}, {"molecule": "CC(=O)Oc1ccc(COC(=O)C(O)C2=CC3(C(=O)O)OC(n4cnc5c(N)ncnc54)C(O)C3O2)cc1", "note": "(centres unmarked) [Example 34, 8'-(4-Acetoxybenzyl) griseolate]", "values": [{"measurement": "cAMP accumulating effect", "setting": "[2]", "result": 16}]}, {"molecule": "COc1cc(COC(=O)C(O)C2=CC3(C(=O)O)OC(n4cnc5c(N)ncnc54)C(O)C3O2)ccc1OC(C)=O", "note": "(centres unmarked) [Example 35, 8'-(4-Acetoxy-3-methoxybenzyl) griseolate]", "values": [{"measurement": "cAMP accumulating effect", "setting": "[2]", "result": 18}]}, {"molecule": "CC(=O)Oc1ccc(COC(=O)C23C=C(CC(=O)O)OC2C(O)C(n2cnc4c(N)ncnc42)O3)cc1", "note": "(centres unmarked) [Example 36, 9'-(4-Acetoxybenzyl) 7'-deoxygriseolate]", "values": [{"measurement": "cAMP accumulating effect", "setting": "[2]", "result": 16}]}, {"molecule": "Nc1ncnc2c1ncn2[C@@H]1OC2=C[C@@](C(=O)O)(C(O)C(=O)O)O[C@H]2[C@H]1O", "note": "(some centres unmarked) [Griseolic acid]", "values": [{"measurement": "Intraocular pressure reduction relative to 0.5% timolol", "setting": "[1]; [7]", "result": -0.12}, {"measurement": "fold induction at 500 µM", "setting": "[3]; Mus musculus, BALB/3T3, 10 min, read-out: cAMP accumulating effect", "result": 3.5}]}, {"molecule": "CC(C)(C)NC[C@H](O)COc1nsnc1N1CCOCC1", "note": "[timolol maleate, reference compound]", "values": [{"measurement": "significant lowering of IOP", "setting": "[5]", "result": "only observed 2 hours after application"}, {"measurement": "difference of IOP between the control eye and the test eye", "setting": "[6]", "result": "no significant difference"}]}, {"molecule": "CC(C)(C)NC[C@H](O)COc1nsnc1N1CCOCC1", "note": "[timolol, reference compound]", "values": [{"measurement": "Intraocular pressure reduction relative to 0.5% timolol", "setting": "[1]; drug concentration 0.5 %, 30 µℓ instilled at 0 and 60 min, reference, taken as 1", "result": 1.0}]}]}
